The kinase profiling compilation of Christmann-Franck et al. (2016)

Columns and labels:
Experiment in all cases: radiometric filter-binding kinase assay
[1] = system: AKT2 (human), P31751 [S474D]
AURKB (human) = AURKB (human) (UniProt Q96GD4)
CAMKK2 (human) = CAMKK2 (human) (UniProt Q96RR4)
CHEK1 (human) = CHEK1 (human) (UniProt O14757)
CHEK2 (human) = CHEK2 (human) (UniProt O96017)
GCK (human) = GCK (human) (UniProt Q12851)
IGF1R (human) = IGF1R (human) (UniProt P08069)
IKBKB (human) = IKBKB (human) (UniProt O14920)
MAP2K1 (human) = MAP2K1 (human) (UniProt Q02750)
MAPK1 (human) = MAPK1 (human) (UniProt P28482)
MAPK10 (human) = MAPK10 (human) (UniProt P53779)
MAPK15 (human) = MAPK15 (human) (UniProt Q8TD08)
MAPK15 (human), sequence (Q8TD08 whole entry, looked up): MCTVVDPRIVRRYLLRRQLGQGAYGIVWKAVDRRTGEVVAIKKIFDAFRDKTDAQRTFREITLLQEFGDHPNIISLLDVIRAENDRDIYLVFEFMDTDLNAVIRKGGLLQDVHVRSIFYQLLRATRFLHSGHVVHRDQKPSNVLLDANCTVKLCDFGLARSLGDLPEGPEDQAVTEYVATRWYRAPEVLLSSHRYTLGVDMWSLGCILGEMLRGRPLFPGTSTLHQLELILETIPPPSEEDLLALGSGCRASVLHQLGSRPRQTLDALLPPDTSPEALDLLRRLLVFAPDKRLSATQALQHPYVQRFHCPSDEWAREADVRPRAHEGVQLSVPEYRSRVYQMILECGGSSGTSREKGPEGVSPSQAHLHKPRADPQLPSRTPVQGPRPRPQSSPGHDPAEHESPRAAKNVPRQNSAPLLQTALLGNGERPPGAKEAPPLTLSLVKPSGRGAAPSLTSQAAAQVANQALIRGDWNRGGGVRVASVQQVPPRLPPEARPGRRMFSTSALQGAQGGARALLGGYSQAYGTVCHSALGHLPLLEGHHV

MAPK3 (human) = MAPK3 (human) (UniProt P27361)
MAPK9 (human) = MAPK9 (human) (UniProt P45984)
MAPK9 (human), sequence (P45984 whole entry, looked up): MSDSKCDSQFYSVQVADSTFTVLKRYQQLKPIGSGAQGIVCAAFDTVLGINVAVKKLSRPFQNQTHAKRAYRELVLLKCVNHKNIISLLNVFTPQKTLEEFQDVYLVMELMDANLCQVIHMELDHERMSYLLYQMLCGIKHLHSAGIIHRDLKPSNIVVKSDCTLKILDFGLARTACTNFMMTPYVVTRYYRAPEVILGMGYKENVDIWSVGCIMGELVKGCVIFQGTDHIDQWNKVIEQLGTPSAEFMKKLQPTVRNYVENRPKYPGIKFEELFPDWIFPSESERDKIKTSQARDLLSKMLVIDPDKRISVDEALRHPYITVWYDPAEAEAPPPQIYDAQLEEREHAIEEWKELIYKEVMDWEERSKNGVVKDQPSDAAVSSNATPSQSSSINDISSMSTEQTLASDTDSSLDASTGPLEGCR

MAPKAPK2 (human) = MAPKAPK2 (human) (UniProt P49137)
MARK2 (human) = MARK2 (human) (UniProt Q7KZI7)
MINK1 (human) = MINK1 (human) (UniProt Q8N4C8)
MKNK1 (human) = MKNK1 (human) (UniProt Q9BUB5)
MKNK1 (human), sequence (Q9BUB5 whole entry, looked up): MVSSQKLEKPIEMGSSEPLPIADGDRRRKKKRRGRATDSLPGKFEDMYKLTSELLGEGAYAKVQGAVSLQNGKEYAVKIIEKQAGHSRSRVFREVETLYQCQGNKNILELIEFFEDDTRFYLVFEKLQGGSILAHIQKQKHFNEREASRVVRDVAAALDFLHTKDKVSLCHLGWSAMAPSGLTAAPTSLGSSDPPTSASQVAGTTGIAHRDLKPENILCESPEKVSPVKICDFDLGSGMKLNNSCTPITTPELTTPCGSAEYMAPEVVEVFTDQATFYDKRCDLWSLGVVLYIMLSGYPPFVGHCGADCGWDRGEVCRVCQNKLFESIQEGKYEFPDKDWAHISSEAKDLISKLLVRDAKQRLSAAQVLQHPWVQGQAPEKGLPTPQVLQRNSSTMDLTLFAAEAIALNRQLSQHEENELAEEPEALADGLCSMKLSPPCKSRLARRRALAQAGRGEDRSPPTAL

MKNK2 (human) = MKNK2 (human) (UniProt Q9HBH9)
MKNK2 (human), sequence (Q9HBH9 whole entry, looked up): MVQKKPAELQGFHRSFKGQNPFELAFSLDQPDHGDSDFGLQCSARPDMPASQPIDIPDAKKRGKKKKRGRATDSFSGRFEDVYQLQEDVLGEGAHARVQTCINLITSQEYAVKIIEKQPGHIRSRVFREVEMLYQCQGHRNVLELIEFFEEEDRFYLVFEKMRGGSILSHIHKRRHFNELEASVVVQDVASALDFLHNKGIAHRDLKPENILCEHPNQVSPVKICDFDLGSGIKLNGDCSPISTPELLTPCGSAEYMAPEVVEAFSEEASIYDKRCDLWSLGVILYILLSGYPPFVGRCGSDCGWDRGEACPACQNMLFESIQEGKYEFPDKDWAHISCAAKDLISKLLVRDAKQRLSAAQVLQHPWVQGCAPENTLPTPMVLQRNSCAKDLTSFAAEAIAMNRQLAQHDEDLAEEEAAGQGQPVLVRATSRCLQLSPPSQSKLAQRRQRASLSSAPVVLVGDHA

NEK2 (human) = NEK2 (human) (UniProt P51955)
NEK2 (human), sequence (P51955 whole entry, looked up): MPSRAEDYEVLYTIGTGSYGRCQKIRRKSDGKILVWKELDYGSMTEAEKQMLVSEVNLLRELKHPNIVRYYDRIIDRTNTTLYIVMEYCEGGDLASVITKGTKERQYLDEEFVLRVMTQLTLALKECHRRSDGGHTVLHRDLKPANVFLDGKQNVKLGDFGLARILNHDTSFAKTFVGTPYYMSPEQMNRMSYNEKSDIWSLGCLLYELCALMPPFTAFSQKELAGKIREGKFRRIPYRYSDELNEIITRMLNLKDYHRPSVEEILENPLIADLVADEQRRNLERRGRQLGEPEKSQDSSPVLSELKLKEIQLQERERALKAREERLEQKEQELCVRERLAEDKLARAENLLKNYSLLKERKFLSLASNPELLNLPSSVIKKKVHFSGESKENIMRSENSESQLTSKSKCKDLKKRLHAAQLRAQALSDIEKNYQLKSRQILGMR

PHKG1 (human) = PHKG1 (human) (UniProt Q16816)
PIM2 (human) = PIM2 (human) (UniProt Q9P1W9)
PKN2 (human) = PKN2 (human) (UniProt Q16513)
PKN2 (human), sequence (Q16513 whole entry, looked up): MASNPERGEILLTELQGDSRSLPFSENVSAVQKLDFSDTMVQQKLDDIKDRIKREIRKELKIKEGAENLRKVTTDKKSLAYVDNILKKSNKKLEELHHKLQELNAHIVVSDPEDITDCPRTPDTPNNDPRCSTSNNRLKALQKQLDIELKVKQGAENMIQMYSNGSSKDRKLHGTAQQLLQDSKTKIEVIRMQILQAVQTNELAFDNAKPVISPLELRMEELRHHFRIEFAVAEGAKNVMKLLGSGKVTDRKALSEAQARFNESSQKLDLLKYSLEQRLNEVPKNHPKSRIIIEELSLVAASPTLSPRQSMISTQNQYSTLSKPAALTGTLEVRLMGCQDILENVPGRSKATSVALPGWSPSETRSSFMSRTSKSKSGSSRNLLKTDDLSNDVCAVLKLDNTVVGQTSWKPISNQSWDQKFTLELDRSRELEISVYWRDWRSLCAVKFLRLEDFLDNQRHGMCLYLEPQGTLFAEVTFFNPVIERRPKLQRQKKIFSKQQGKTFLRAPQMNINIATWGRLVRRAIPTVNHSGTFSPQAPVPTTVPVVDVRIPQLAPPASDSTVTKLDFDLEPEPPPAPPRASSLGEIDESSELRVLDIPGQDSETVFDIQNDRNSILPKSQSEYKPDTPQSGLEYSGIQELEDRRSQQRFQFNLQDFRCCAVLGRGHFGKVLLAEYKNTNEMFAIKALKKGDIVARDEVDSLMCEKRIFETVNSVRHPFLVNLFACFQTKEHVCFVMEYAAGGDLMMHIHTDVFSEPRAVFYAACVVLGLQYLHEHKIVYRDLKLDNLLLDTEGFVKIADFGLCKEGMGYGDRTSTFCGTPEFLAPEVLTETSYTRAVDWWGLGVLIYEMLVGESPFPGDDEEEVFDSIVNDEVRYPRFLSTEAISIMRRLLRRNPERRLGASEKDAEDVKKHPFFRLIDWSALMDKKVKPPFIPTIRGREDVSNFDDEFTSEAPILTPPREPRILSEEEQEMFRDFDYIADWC

PRKAA1 or PRKAA2 (rat) = details: accession and sequence are those of the human protein
PRKACA (human) = PRKACA (human) (UniProt P17612)
PRKCA (human) = PRKCA (human) (UniProt P17252)
RPS6KA1 KD1 KD2 (human) = RPS6KA1 KD1 KD2 (human) (UniProt Q15418)
SRC (human) = SRC (human) (UniProt P12931)
[2] = target: STK11 CAB39 STRADA (human) (UniProt Q9Y376+Q7RTN6+Q15831)
STK3 (human) = STK3 (human) (UniProt Q13188)
YES1 (human) = YES1 (human) (UniProt P07947)
EPHB4 (human) = EPHB4 (human) (UniProt P54760); details: compound 10.0 µM
NTRK1 (human) = NTRK1 (human) (UniProt P04629); details: compound 10.0 µM

CAMKK2 (human), sequence (Q96RR4 whole entry, looked up): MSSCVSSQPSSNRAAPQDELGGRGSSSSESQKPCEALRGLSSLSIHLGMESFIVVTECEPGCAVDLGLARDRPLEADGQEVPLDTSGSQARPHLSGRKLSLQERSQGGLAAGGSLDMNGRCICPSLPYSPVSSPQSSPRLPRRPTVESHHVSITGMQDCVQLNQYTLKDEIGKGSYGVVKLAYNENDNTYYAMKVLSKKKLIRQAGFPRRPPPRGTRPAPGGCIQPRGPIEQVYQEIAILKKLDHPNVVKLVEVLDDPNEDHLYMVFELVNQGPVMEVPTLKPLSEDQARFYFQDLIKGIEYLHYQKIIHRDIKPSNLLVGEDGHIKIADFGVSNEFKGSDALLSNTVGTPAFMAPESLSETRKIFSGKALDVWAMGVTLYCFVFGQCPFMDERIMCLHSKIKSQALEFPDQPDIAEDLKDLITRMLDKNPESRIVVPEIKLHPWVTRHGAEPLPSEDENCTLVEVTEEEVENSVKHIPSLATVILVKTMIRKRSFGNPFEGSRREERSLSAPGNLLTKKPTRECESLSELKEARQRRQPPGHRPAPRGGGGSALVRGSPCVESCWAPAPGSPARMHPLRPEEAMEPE
AKT2 (human), P31751 [S474D], sequence (P31751 whole entry S474D, looked up): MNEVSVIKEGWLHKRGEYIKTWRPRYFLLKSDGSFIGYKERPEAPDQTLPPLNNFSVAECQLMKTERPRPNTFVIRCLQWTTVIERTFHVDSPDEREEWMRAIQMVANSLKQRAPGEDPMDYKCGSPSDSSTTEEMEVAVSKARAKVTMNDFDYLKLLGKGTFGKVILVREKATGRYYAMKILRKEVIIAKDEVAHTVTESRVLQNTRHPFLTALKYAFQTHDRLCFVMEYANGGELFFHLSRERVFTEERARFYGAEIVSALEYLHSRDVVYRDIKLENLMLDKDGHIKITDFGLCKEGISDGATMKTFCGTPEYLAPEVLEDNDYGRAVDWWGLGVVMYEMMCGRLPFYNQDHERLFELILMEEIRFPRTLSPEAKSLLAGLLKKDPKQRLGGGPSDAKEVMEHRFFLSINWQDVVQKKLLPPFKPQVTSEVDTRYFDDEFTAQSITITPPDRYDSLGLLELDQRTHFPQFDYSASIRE
CHEK2 (human), sequence (O96017 whole entry, looked up): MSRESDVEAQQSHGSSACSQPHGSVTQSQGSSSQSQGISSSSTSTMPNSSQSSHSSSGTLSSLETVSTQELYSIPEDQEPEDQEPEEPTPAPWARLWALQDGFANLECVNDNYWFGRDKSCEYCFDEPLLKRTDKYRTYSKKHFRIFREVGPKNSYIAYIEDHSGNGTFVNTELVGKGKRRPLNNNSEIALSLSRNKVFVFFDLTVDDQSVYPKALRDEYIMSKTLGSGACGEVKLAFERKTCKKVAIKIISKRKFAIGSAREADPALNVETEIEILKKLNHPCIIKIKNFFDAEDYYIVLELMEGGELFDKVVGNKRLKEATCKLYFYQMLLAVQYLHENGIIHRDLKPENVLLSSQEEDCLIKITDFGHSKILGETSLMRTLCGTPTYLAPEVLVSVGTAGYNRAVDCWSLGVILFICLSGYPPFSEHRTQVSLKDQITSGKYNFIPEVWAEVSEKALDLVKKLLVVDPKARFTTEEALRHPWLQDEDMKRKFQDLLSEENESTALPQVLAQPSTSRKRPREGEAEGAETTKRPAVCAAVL

SMILES: CN1C(=O)[C@@H](Cc2c[nH]c3ccccc23)NC1=S
- residual activity ([1]; compound 1.0 µM): 79%
- residual activity ([1]; compound 10.0 µM): 68%
- residual activity (AURKB (human); compound 1.0 µM): 104%
- residual activity (AURKB (human); compound 10.0 µM): 106%
- residual activity (CAMKK2 (human); compound 1.0 µM): 91%
- residual activity (CAMKK2 (human); compound 10.0 µM): 86%
- residual activity (CHEK1 (human); compound 1.0 µM): 109%
- residual activity (CHEK1 (human); compound 10.0 µM): 103%
- residual activity (CHEK2 (human); compound 1.0 µM): 92%
- residual activity (CHEK2 (human); compound 10.0 µM): 86%
- residual activity (GCK (human); compound 1.0 µM): 110%
- residual activity (GCK (human); compound 10.0 µM): 89%
- residual activity (IGF1R (human); compound 1.0 µM): 86%
- residual activity (IGF1R (human); compound 10.0 µM): 120%
- residual activity (IKBKB (human); compound 1.0 µM): 95%
- residual activity (IKBKB (human); compound 10.0 µM): 96%
- residual activity (MAP2K1 (human); compound 1.0 µM): 85%
- residual activity (MAP2K1 (human); compound 10.0 µM): 109%
- residual activity (MAPK1 (human); compound 1.0 µM): 94%
- residual activity (MAPK1 (human); compound 10.0 µM): 92%
- residual activity (MAPK10 (human); compound 1.0 µM): 99%
- residual activity (MAPK10 (human); compound 10.0 µM): 110%
- residual activity (MAPK15 (human); compound 1.0 µM): 98%
- residual activity (MAPK15 (human); compound 10.0 µM): 103%
- residual activity (MAPK3 (human); compound 10.0 µM): 93%
- residual activity (MAPK9 (human); compound 1.0 µM): 85%
- residual activity (MAPK9 (human); compound 10.0 µM): 88%
- residual activity (MAPKAPK2 (human); compound 1.0 µM): 85%
- residual activity (MAPKAPK2 (human); compound 10.0 µM): 96%
- residual activity (MARK2 (human); compound 1.0 µM): 110%
- residual activity (MARK2 (human); compound 10.0 µM): 109%
- residual activity (MINK1 (human); compound 1.0 µM): 103%
- residual activity (MINK1 (human); compound 10.0 µM): 99%
- residual activity (MKNK1 (human); compound 1.0 µM): 86%
- residual activity (MKNK1 (human); compound 10.0 µM): 78%
- residual activity (MKNK2 (human); compound 1.0 µM): 106%
- residual activity (MKNK2 (human); compound 10.0 µM): 102%
- residual activity (NEK2 (human); compound 1.0 µM): 86%
- residual activity (NEK2 (human); compound 10.0 µM): 86%
- residual activity (PHKG1 (human); compound 1.0 µM): 103%
- residual activity (PHKG1 (human); compound 10.0 µM): 97%
- residual activity (PIM2 (human); compound 1.0 µM): 95%
- residual activity (PIM2 (human); compound 10.0 µM): 105%
- residual activity (PKN2 (human); compound 1.0 µM): 91%
- residual activity (PKN2 (human); compound 10.0 µM): 90%
- residual activity (PRKAA1 or PRKAA2 (rat); compound 1.0 µM): 94%
- residual activity (PRKAA1 or PRKAA2 (rat); compound 10.0 µM): 102%
- residual activity (PRKACA (human); compound 1.0 µM): 95%
- residual activity (PRKACA (human); compound 10.0 µM): 93%
- residual activity (PRKCA (human); compound 1.0 µM): 97%
- residual activity (PRKCA (human); compound 10.0 µM): 96%
- residual activity (RPS6KA1 KD1 KD2 (human); compound 1.0 µM): 80%
- residual activity (RPS6KA1 KD1 KD2 (human); compound 10.0 µM): 92%
- residual activity (SRC (human); compound 1.0 µM): 98%
- residual activity (SRC (human); compound 10.0 µM): 110%
- residual activity ([2]; compound 1.0 µM): 111%
- residual activity ([2]; compound 10.0 µM): 110%
- residual activity (STK3 (human); compound 1.0 µM): 94%
- residual activity (STK3 (human); compound 10.0 µM): 104%
- residual activity (YES1 (human); compound 1.0 µM): 107%
- residual activity (YES1 (human); compound 10.0 µM): 92%

SMILES: CCOC(=O)c1ccc(N2NC(=O)/C(=C/c3ccc([N+](=O)[O-])o3)C2=O)cc1
- residual activity ([1]; compound 10.0 µM): 49%
- residual activity (AURKB (human); compound 10.0 µM): 102%
- residual activity (CAMKK2 (human); compound 10.0 µM): 125%
- residual activity (CHEK1 (human); compound 10.0 µM): 164%
- residual activity (CHEK2 (human); compound 10.0 µM): 92%
- residual activity (EPHB4 (human)): 89%
- residual activity (GCK (human); compound 10.0 µM): 96%
- residual activity (IKBKB (human); compound 10.0 µM): 108%
- residual activity (MAP2K1 (human); compound 10.0 µM): 29%
- residual activity (MAPK1 (human); compound 10.0 µM): 82%
- residual activity (MAPK10 (human); compound 10.0 µM): 79%
- residual activity (MAPK15 (human); compound 10.0 µM): 86%
- residual activity (MAPK3 (human); compound 10.0 µM): 103%
- residual activity (MAPK9 (human); compound 10.0 µM): 93%
- residual activity (MAPKAPK2 (human); compound 10.0 µM): 78%
- residual activity (MINK1 (human); compound 10.0 µM): 73%
- residual activity (MKNK1 (human); compound 10.0 µM): 110%
- residual activity (MKNK2 (human); compound 10.0 µM): 89%
- residual activity (NEK2 (human); compound 10.0 µM): 125%
- residual activity (NTRK1 (human)): 104%
- residual activity (PIM2 (human); compound 10.0 µM): 107%
- residual activity (PKN2 (human); compound 10.0 µM): 105%
- residual activity (PRKAA1 or PRKAA2 (rat); compound 10.0 µM): 108%
- residual activity (PRKACA (human); compound 10.0 µM): 95%
- residual activity (PRKCA (human); compound 10.0 µM): 96%
- residual activity (RPS6KA1 KD1 KD2 (human); compound 10.0 µM): 92%
- residual activity ([2]; compound 10.0 µM): 134%
- residual activity (STK3 (human); compound 10.0 µM): 122%
- residual activity (YES1 (human); compound 10.0 µM): 110%

SMILES: O=C(O)c1cc(N=Nc2ccc(S(=O)(=O)Nc3ccccn3)cc2)ccc1O
- residual activity ([1]; compound 10.0 µM): 94%
- residual activity (AURKB (human); compound 1.0 µM): 104%
- residual activity (AURKB (human); compound 10.0 µM): 105%
- residual activity (CAMKK2 (human); compound 1.0 µM): 127%
- residual activity (CAMKK2 (human); compound 10.0 µM): 122%
- residual activity (CHEK1 (human); compound 1.0 µM): 104%
- residual activity (CHEK1 (human); compound 10.0 µM): 109%
- residual activity (CHEK2 (human); compound 1.0 µM): 108%
- residual activity (CHEK2 (human); compound 10.0 µM): 103%
- residual activity (GCK (human); compound 1.0 µM): 101%
- residual activity (GCK (human); compound 10.0 µM): 96%
- residual activity (IGF1R (human); compound 1.0 µM): 111%
- residual activity (IGF1R (human); compound 10.0 µM): 98%
- residual activity (IKBKB (human); compound 1.0 µM): 107%
- residual activity (IKBKB (human); compound 10.0 µM): 89%
- residual activity (MAP2K1 (human); compound 1.0 µM): 86%
- residual activity (MAP2K1 (human); compound 10.0 µM): 91%
- residual activity (MAPK1 (human); compound 1.0 µM): 104%
- residual activity (MAPK1 (human); compound 10.0 µM): 97%
- residual activity (MAPK10 (human); compound 1.0 µM): 105%
- residual activity (MAPK10 (human); compound 10.0 µM): 107%
- residual activity (MAPK15 (human); compound 1.0 µM): 111%
- residual activity (MAPK15 (human); compound 10.0 µM): 109%
- residual activity (MAPK3 (human); compound 1.0 µM): 103%
- residual activity (MAPK3 (human); compound 10.0 µM): 110%
- residual activity (MAPK9 (human); compound 1.0 µM): 128%
- residual activity (MAPK9 (human); compound 10.0 µM): 117%
- residual activity (MAPKAPK2 (human); compound 1.0 µM): 100%
- residual activity (MAPKAPK2 (human); compound 10.0 µM): 106%
- residual activity (MARK2 (human); compound 1.0 µM): 108%
- residual activity (MARK2 (human); compound 10.0 µM): 107%
- residual activity (MINK1 (human); compound 10.0 µM): 57%
- residual activity (MKNK1 (human); compound 1.0 µM): 97%
- residual activity (MKNK1 (human); compound 10.0 µM): 79%
- residual activity (MKNK2 (human); compound 1.0 µM): 76%
- residual activity (MKNK2 (human); compound 10.0 µM): 99%
- residual activity (NEK2 (human); compound 10.0 µM): 97%
- residual activity (PHKG1 (human); compound 1.0 µM): 104%
- residual activity (PHKG1 (human); compound 10.0 µM): 94%
- residual activity (PIM2 (human); compound 1.0 µM): 98%
- residual activity (PIM2 (human); compound 10.0 µM): 77%
- residual activity (PKN2 (human); compound 1.0 µM): 94%
- residual activity (PKN2 (human); compound 10.0 µM): 90%
- residual activity (PRKAA1 or PRKAA2 (rat); compound 1.0 µM): 101%
- residual activity (PRKACA (human); compound 1.0 µM): 111%
- residual activity (PRKACA (human); compound 10.0 µM): 114%
- residual activity (PRKCA (human); compound 1.0 µM): 90%
- residual activity (PRKCA (human); compound 10.0 µM): 85%
- residual activity (RPS6KA1 KD1 KD2 (human); compound 1.0 µM): 129%
- residual activity (RPS6KA1 KD1 KD2 (human); compound 10.0 µM): 122%
- residual activity (SRC (human); compound 1.0 µM): 94%
- residual activity (SRC (human); compound 10.0 µM): 83%
- residual activity ([2]; compound 1.0 µM): 124%
- residual activity ([2]; compound 10.0 µM): 117%
- residual activity (STK3 (human); compound 1.0 µM): 94%
- residual activity (STK3 (human); compound 10.0 µM): 92%
- residual activity (YES1 (human); compound 1.0 µM): 113%
- residual activity (YES1 (human); compound 10.0 µM): 103%
